Test results from patent US20110039762A1, “TARGETED ANTIMICROBIAL MOIETIES” (C3 JIAN, INC., priority 2009, published 2011).
Entries after “also recorded” stand apart in the source; their conditions may differ.

Columns and labels:
S. pneumoniae = experiment: Kill or inhibit growth/proliferation; morphology, biofilm and growth disruption (Tables 5, 6); format: cell-based, Streptococcus pneumoniae; design: key: A: Peptide aggregates; B: Less hyphal formation; Clumps; Diffuse clumps and small polyps; F: Diffuse growth; H: Thin; I: Growth inhibition; Microcolony formation; Rippled; Small polyps; Thick; W: Halo formation on top, microlonies on bottom; further: test concentration or dose not given here
E. coli = experiment: as above; format: cell-based, Escherichia coli; design: key: A: Peptide aggregates; B: Less hyphal formation; Clumps; Diffuse clumps and small polyps; F: Diffuse growth; H: Thin; I: Growth inhibition; Microcolony formation; Rippled; Small polyps; Thick; W: Halo formation on top, microlonies on bottom
MRSA = experiment: as above; format: cell-based, Methicillin-resistant Staphylococcus aureus; design: key: A: Peptide aggregates; B: Less hyphal formation; Clumps; Diffuse clumps and small polyps; F: Diffuse growth; H: Thin; I: Growth inhibition; Microcolony formation; Rippled; Small polyps; Thick; W: Halo formation on top, microlonies on bottom
E. faecalis = experiment: as above; format: cell-based, Enterococcus faecalis; design: key: A: Peptide aggregates; B: Less hyphal formation; Clumps; Diffuse clumps and small polyps; F: Diffuse growth; H: Thin; I: Growth inhibition; Microcolony formation; Rippled; Small polyps; Thick; W: Halo formation on top, microlonies on bottom
microorganisms = experiment: Peptides having multiple activities (targeting/binding, antimicrobial, growth or phenotype altering)
Excerpt: In certain embodiments, peptides described herein can have multiple activities. Thus for example, a peptide can have both binding/targeting activity and antimicrobial activity. Such peptides can be used, e.g., in a chimeric construct, for any or all of these properties. Thus, for example, a peptide designated “B” in Table 8 can be used as a targeting peptide. If it is also designated G or M it can also be used for antimicrobial activity.

S. epidermidis = experiment: Kill or inhibit growth/proliferation; morphology, biofilm and growth disruption (Tables 5, 6); format: cell-based, Staphylococcus epidermidis; design: key: A: Peptide aggregates; B: Less hyphal formation; Clumps; Diffuse clumps and small polyps; F: Diffuse growth; H: Thin; I: Growth inhibition; Microcolony formation; Rippled; Small polyps; Thick; W: Halo formation on top, microlonies on bottom; further: test concentration or dose not given here
C. jejuni = experiment: as above; format: cell-based, Campylobacter jejuni; design: key: A: Peptide aggregates; B: Less hyphal formation; Clumps; Diffuse clumps and small polyps; F: Diffuse growth; H: Thin; I: Growth inhibition; Microcolony formation; Rippled; Small polyps; Thick; W: Halo formation on top, microlonies on bottom
[1] = system: microorganisms (e.g., bacteria, yeasts, fungi); experiment: Targeting peptide binding to target microorganisms (Table 3); conditions: preferably 1x PBS; for Target(s): microorganism(s) the targeting peptide binds
[2] = peptide binding conducted in aqueous buffers varied by peptide solubility
Wherever Organism, effect is given: test concentration or dose not given here.

## PF-363: peptide having multiple activities (chain 1 SMLSVTVMCLMHASVAANQAMEKKV; chain 2 SMLSVTVMCLMHASVAANQAMEKKV; Peptide with targeting and/or antimicrobial activity)
S. pneumoniae
  Organism, effect: S. pneumoniae (R)
E. coli
  Organism, effect: E. coli (C)
MRSA
  Organism, effect: MRSA (H)
E. faecalis
  Organism, effect: E. faecalis (D)
microorganisms
  Activities: G B
S. epidermidis
  Organism, effect: S. epidermidis (S)
C. jejuni
  Organism, effect: C. jejuni (D)
[1]; binding in aqueous buffers depending on peptide solubility
  Target(s): B. subtilis; also recorded: E. coli; also recorded: P. aeruginosa; also recorded: C. albicans; also recorded: S. pneumoniae; also recorded: E. faecalis

## PF-390: peptide having multiple activities (chain 1 VVAYVITQVGAIRF; chain 2 VVAYVITQVGAIRF; Peptide with targeting and/or antimicrobial activity)
S. pneumoniae
  Organism, effect: S. pneumoniae (D)
E. coli
  Organism, effect: E. coli (C)
MRSA
  Organism, effect: MRSA (D)
E. faecalis
  Organism, effect: E. faecalis (D)
microorganisms
  Activities: G B
S. epidermidis
  Organism, effect: S. epidermidis (D)
C. jejuni
  Organism, effect: C. jejuni (D)
[1]; [2]
  Target(s): S. epidermidis and P. aeruginosa and C. albicans and MRSA

## PF-584: peptide having multiple activities (SYIKNLSNQKFLIAF; Peptide with targeting and/or antimicrobial activity)
S. pneumoniae
  Organism, effect: S. pneumoniae (D)
E. coli
  Organism, effect: E. coli (C)
MRSA
  Organism, effect: MRSA (D)
E. faecalis
  Organism, effect: E. faecalis (D)
microorganisms
  Activities: G B
S. epidermidis
  Organism, effect: S. epidermidis (C)
C. jejuni
  Organism, effect: C. jejuni (D)
[1]; [2]
  Target(s): S. epidermidis and M. luteus and P. mirabilis and C. albicans and MRSA and S. pneumoniae and E. faecalis and C. jeikeium

## PF-596: peptide having multiple activities (SKMWDKILTILILILELIRELIKL; Peptide with targeting and/or antimicrobial activity)
S. pneumoniae
  Organism, effect: S. pneumoniae (D)
E. coli
  Organism, effect: E. coli (C)
MRSA
  Organism, effect: MRSA (D)
E. faecalis
  Organism, effect: E. faecalis (D)
microorganisms
  Activities: G B
S. epidermidis
  Organism, effect: S. epidermidis (D)
C. jejuni
  Organism, effect: C. jejuni (D)

## PF-598: peptide having multiple activities (MKFMLEVRNKAISAYKEITRTQI; Peptide with targeting and/or antimicrobial activity)
S. pneumoniae
  Organism, effect: S. pneumoniae (R)
E. coli
  Organism, effect: E. coli (C)
MRSA
  Organism, effect: MRSA (D)
E. faecalis
  Organism, effect: E. faecalis (R)
microorganisms
  Activities: G B
S. epidermidis
  Organism, effect: S. epidermidis (R)
C. jejuni
  Organism, effect: C. jejuni (R)
[1]; peptide binding in aqueous buffers varied by peptide solubility
  Target(s) (microorganisms bound by the targeting peptide): S. epidermidis and M. luteus and P. mirabilis and P. aeruginosa and C. albicans and MRSA and S. pneumoniae and C. jeikeium

## PF-610: peptide having multiple activities (VFLKLKTSKIDLASIIFYP; Peptide with targeting and/or antimicrobial activity)
S. pneumoniae
  Organism, effect: S. pneumoniae (D)
E. coli
  Organism, effect: E. coli (C)
MRSA
  Organism, effect: MRSA (D)
E. faecalis
  Organism, effect: E. faecalis (D)
microorganisms
  Activities: G B
S. epidermidis
  Organism, effect: S. epidermidis (C)
C. jejuni
  Organism, effect: C. jejuni (D)

## PF-615: peptide having multiple activities (FLNRFIFYIFTVKTKSALIKNLFLD; Peptide with targeting and/or antimicrobial activity)
S. pneumoniae
  Organism, effect: S. pneumoniae (D)
E. coli
  Organism, effect: E. coli (C)
MRSA
  Organism, effect: MRSA (D)
E. faecalis
  Organism, effect: E. faecalis (D)
microorganisms
  Activities: G B
S. epidermidis
  Organism, effect: S. epidermidis (D)
C. jejuni
  Organism, effect: C. jejuni (D)
